Measurements published in US8372443B2, “Methods and compositions for the treatment and prevention of citrus greening disease” (priority 2008, dated 2013).

Key:
[1] = system: D. citri; assay: Y-tube olfactometer test; type: in vivo, Diaphorina citri
Method: In order to confirm the repellent effect of synthetic DMDS against D. citri, an additional study using a Y-tube olfactometer (ARS, Gainesville, Fla., USA) was conducted. The Y-tube consisted of a central stem (13.5 cm long, 2.4 cm o.d.) with two lateral arms (5.75 cm long, 2.4 cm o.d.). The lateral arms were connected to extending glass tubes (14.5 cm long, 1.9 cm o.d.) with inlayed sieves (5.25 cm away from connection) to prevent insect escape and serve as an end point of the lateral arms. Charcoal-filtered laboratory air was passed from an air pump, into each of the extending arms of the olfactometer at a rate 100 mL/min. […]
Adult psyllids that oriented to any of the four arms of the olfactometer were categorized as attracted and those that remained in the olfactometer's central orifice (release point) until the 1.5 h experimental period elapsed as repelled. […] Subsequently, data obtained for D. citri orientation to the four arms (two volatile sources and two laboratory air) was analyzed for each treatment using one-way step-wise ANOVA followed by Tukey's HSD test (P<0.05, SAS Institute Inc., 2003). The data obtained from the Y-tube olfactometer bioassays was analyzed using Chi-square (χ^2) analyses (Parker, 1979) to compare between the numbers of attracted versus repelled D. citri (P<0.05).

[2] = system: D. citri; assay: 4-choice olfactometer behavioral bioassay; type: in vivo, Diaphorina citri; conditions: for t (percentages of repelled versus attracted D. citri, student's t-test): laboratory air, 1.5 h
Method: Adult D. citri used for the behavioral bioassays were drawn from a continuously reared culture at the University of Florida Citrus Research and Education Center (Lake Alfred, USA) and established in 2000 from field populations in Polk Co., FL, USA (28.0′N, 81.9′W) prior to the discovery of citrus greening disease in FL. This culture is maintained on sour orange (Citrus aurantium L.) and ‘Hamlin’ orange [C. sinensis (L.)] seedlings at 27±1° C., 63±2% RH, and L14:D10 photoperiod. Freshly emerged unsexed adult psyllids were first placed on citrus seedlings in Plexiglass cages for up to 7 d for sexual maturation prior to use in experiments.
Husbandry methods for the ‘white’ guava and ‘Hamlin’ citrus plants used in these investigations have been described previously (Rouseff et al., 2008). ‘Hamlin’ citrus was selected for analysis because it is one of the most highly cultivated citrus varieties in Florida. Half of the samples were gently crushed (using a clean glass rod) to simulate plant damage and the remaining half were not crushed. All samples ([…] leaf flush/sample) were wrapped in Kim wipes (Kimberly-Clark®, Ontario, Canada) and placed in 2.5 cm×12.5 cm extending glass tubes of a 4-choice olfactometer [Analytical Research Systems, ARS (Gainesville, Fla.)], for behavioral investigations described below.
Behavioral responses of D. citri to citrus volatiles with or without guava or DMDS volatiles were quantified using a 4-choice olfactometer (Analytical Research Systems, Inc. (ARS), Gainesville, Fla., USA) based on the design of Pettersson (1970), Vet et al. (1983) and Kalule & Wright (2004). The olfactometer consists of a 5 cm×30 cm×30 cm stage on four 2.5 cm×15 cm legs with extending orifices on four sides of the stage. Charcoal-purified and humidified air was drawn through these arms via a vacuum pump creating four potential odor fields. Air pulled through the olfactometer was evacuated through a central orifice on the floor of the stage. During each experimental run, two of the four orifices on the sides of the stage were designated for odor stimuli treatments and the two others were left as blank. […] The effect of repellent chemicals was measured by adding guava leaves or a formulation of synthetic DMDS to citrus flush in two arms of the olfactometer as described below. […]
The behavioral response of adult D. citri to clean laboratory air was first investigated to 4 blank arms of the olfactometer as a negative control to ensure no positional bias. Thereafter, D. citri response was measured to citrus leaf volatiles with and without volatiles from guava leaves or synthetic DMDS. […]

[3] = system: Mediterranean fruit fly, Ceratitis capitata; conditions: literature reference 23; cited from earlier work

SMILES	effect on D. citri's response to citrus flush volatiles ([1]; Y-tube first experiment: 100 μL DMDS solution in mineral oil plus ~3.5 g citrus flush in both arms versus citrus alone, χ2=2.57, P=0.109)	percentage of D. citri choosing the arm releasing clean air versus DMDS ([1]; Y-tube second experiment: DMDS in mineral oil in one arm, clean laboratory air in the other, 300 s, χ2=5.0, P=0.025)	repellence of adult D. citri at the selected dosage (preliminary investigation) ([2]; 100 μL of a 4.3 μg/μL (w/v) solution in mineral oil on cotton wick, compared with lower dosages on a log scale (data not shown))	t (percentages of repelled versus attracted D. citri, student's t-test) ([2]; Experiment 2: arms laboratory air, intact citrus, DMDS, 100 μL of 4.3 μg/μL DMDS in mineral oil)	t (percentages of repelled versus attracted D. citri, student's t-test) ([2]; Experiment 3: arms laboratory air, crushed citrus, DMDS)	t (percentages of repelled versus attracted D. citri, student's t-test) ([2]; Experiment 4: arms laboratory air, mineral oil, DMDS (DMDS only))	reported behavioural effect on Mediterranean fruit fly [3]
CSSC [DMDS, dimethyl disulfide]	significantly inhibited	~75%	optimally repel	3.05	7.23	6.25	–
CC1=CC[C@H]2[C@H]3[C@@H]1[C@]2(C)CC[C@H]3C(C)C [α-Copaene]	–	–	–	–	–	–	attractant
